Data as given in publication PMC2912279, “Calycosin Promotes Angiogenesis Involving Estrogen Receptor and Mitogen-Activated Protein Kinase (MAPK) Signaling Pathway in Zebrafish and HUVEC” (PLoS ONE, 2010).

Columns and labels:
HUVEC = HUVEC viability/proliferation by XTT assay; type: cell-based, Human; details: P<0.05
[1] = test system: VEGFA, VEGFR1, Flk1A, Flk1B mRNA; assay: mRNA expression in calycosin treated zebrafish by real-time PCR; type: in vivo; details: 100 µM, 6 h
Method: Zebrafish embryos at 72 hpf were treated with calycosin for 6 h. Total RNA was extracted from 30 zebrafish embryos of each treatment group using the RNeasy Mini Kit (Qiagen, USA) in accordance with the manufacturer's instructions. RNA was reverse transcribed to single-strand cDNA using SuperScript™ III First-Strand Synthesis System for RT–PCR (Invitrogen™, USA), followed by real-time PCR using the TaqMan® Universal PCR Master Mix and 250 nM custom TaqMan primers for zebrafish Flk1A, Flk1B, VEGFR1, VEGFA2 (Applied Biosystems, USA) in the ABI 7500 Real-Time PCR System (Applied Biosystems). The expression of Flk1A, VEGFA2 mRNA was normalized to the amount of bactin1, using the relative quantification method described by the manufacturer.
The zebrafish bactin1 primers were 5′-[…]-3′ (F) and 5′-[…]-3′(R) (Applied Biosystems, USA).
The zebrafish Flk1A (kdrl) primers were 5′- […]-3′ (F) and 5′- […]-3′(R) (Applied Biosystems, USA).
The zebrafish Flk1B (kdr) primers were 5′- […]-3′ (F) and 5′-[…]-3′(R) (Applied Biosystems, USA).
The zebrafish FLT1 primers were 5′-[…]-3′ (F) and 5′-[…]-3′(R) (Applied Biosystems, USA).
The zebrafish VEGFA2 primers were 5′-[…]-3′ (F) and 5′-[…]-3′ (R) (Applied Biosystems, USA).

ERβ [2] = target: T1, ERβ (Homo sapiens, UniProt Q92731)
Target sequence in this assay (Q92731 264-498 limits assumed): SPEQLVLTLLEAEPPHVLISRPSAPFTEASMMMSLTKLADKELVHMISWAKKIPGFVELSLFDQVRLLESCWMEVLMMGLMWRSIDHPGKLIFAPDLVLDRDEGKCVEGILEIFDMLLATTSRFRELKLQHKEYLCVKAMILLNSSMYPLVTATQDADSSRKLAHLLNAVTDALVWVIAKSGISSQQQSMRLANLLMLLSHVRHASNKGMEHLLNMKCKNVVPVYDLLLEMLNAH

ERβ [3] = target: T1, ERβ; assay: biochemical
Method: (§1) The binding affinity of calycosin to ER-α and β was evaluated by the commercially available competitor assay (Invitrogen, Carlasbad, CA) according to the manufacturer's instructions. In brief, ER was added to fluorescently tagged ER ligand (Fluormone™ ES2) to form ER/Fluormone™ ES2 complexes with a high fluorescent polarization value. Displacement of fluorescently tagged ligands by unlabeled ligands decreased fluorescent polarization, resulting in a low value. In this system, changes in intensity of polarization reflect displacement of fluorescently tagged ligands. […] Plates were incubated at room temperature for 2 h and fluorescent polarization values measured using a Multilabel Counter (Perkin Elmer, Singapore).
Target sequence in this assay (Q92731 whole entry): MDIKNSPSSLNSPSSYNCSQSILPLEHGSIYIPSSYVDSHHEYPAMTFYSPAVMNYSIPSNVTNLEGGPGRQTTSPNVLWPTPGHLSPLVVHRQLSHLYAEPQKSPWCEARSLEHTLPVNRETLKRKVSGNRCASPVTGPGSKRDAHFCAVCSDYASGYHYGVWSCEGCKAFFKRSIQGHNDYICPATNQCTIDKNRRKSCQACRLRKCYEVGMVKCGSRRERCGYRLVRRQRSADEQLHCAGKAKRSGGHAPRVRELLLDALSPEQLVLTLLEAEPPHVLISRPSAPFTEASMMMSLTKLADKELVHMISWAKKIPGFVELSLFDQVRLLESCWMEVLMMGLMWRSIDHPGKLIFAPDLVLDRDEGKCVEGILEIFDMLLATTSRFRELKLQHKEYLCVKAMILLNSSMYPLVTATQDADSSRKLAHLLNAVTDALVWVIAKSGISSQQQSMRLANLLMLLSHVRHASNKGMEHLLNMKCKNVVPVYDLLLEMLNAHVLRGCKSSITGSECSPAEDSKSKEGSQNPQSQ

ERβ [4] = target: T1, ERβ; details: percentage of maximum activation induced by 17-β-estradiol (10 µM)
Target sequence in this assay (Q92731 264-498 limits assumed): as the sequence (Q92731 264-498 limits assumed) above

ERα [5] = target: T2, ERα (Homo sapiens, UniProt P03372); assay: GeneBLAzer β-lactamase reporter-gene assay, agonist activity, ERα-UAS-bla GripTite cells
T2 sequence (P03372 311-547 limits assumed): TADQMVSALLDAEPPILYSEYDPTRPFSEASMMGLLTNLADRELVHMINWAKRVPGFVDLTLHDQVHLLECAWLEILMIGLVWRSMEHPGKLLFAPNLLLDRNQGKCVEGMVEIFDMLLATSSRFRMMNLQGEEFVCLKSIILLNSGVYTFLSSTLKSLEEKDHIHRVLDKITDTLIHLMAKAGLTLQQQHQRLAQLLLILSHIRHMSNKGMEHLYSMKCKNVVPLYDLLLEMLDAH

ERα [6] = target: T3, ERα (Homo sapiens, UniProt P03372); assay: ER fluorescence polarization competitive binding assay (Fluormone ES2 displacement), ERα
T3 construct: purchased Invitrogen
T3 sequence (P03372 1-595): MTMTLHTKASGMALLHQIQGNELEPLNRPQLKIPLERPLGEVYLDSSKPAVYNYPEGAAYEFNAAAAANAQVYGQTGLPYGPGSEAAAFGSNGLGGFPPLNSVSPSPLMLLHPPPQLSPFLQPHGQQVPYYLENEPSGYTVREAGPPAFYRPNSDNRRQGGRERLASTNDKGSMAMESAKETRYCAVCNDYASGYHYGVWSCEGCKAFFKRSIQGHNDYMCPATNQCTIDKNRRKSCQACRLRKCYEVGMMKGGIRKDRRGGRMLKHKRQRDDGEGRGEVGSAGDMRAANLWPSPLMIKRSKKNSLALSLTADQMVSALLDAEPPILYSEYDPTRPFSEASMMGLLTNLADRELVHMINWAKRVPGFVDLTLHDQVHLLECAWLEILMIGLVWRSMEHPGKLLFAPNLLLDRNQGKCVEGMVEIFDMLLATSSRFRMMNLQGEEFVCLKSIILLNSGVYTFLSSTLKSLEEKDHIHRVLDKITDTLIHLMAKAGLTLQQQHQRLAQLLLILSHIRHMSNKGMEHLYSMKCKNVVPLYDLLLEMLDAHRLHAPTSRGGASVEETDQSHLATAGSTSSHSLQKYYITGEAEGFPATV
Method: as §1

[7] = test system: subintestinal vein vessels (SIVs) of Tg(fli1:EGFP) zebrafish embryos; assay: Blood vessel formation (SIV diameter/morphology) in Tg(fli1:EGFP) zebrafish embryos; type: in vivo; details: for angiogenic effect in SIVs, comparison with classical SERMs: raloxifene 10 µM, tamoxifen 3 µM, 17-βEstradiol 10 µM, calycosin 100 µM
Method: Zebrafish embryos were generated by natural pair-wise mating (3–12 months old) and were raised at 28.5°C in embyro water. Healthy, hatched zebrafish were picked out at 3 dpf and distributed into a 12-well microplate with 10 to 15 fish in each well. […] Embryos receiving DMSO (0.1%) served as vehicle controls and were equivalent to no treatment. Each experiment was repeated at least three times, with 30 embryos per group. VTKI was dissolved in DMSO as stock. Zebrafish embryos, Tg(fli-1:EGFP) and Tg(fli-1:nEGFP), were treated with inhibitor dissolved in embryo water from 3 dpf at the concentration indicated, controlled by DMSO treated embryos. Embryos were maintained using standard methods.
(§2) At 96 hpf, zebrafish were removed from microplates and observed for viability and gross morphological changes under a fluorescence microscope (Olympus IX81 Motorized Inverted Microscope, Japan) equipped with a digital camera (DP controller, Soft Imaging System, Olympus). Images were analyzed with Axiovision 4.2 and Adobe Photoshop 7.0.
Three random points in SIVs of Tg(fli1:EGFP) zebrafish embryos were chosen for vessel diameter measurement using AxiovisionLE 4.1. Numbers of endothelial cells in SIVs of Tg(fli1:nEGFP) zebrafish embryos were assessed by direct counting of the total number of green light points. Each green light point represents one endothelial cell (GFP+).

ERK1/2 = assay: Western blotting of phospho-ERK1/2 in HUVEC; type: cell-based, Human
[8] = test system: endothelial cells in SIVs of Tg(fli1:nEGFP) zebrafish embryos; assay: Endothelial cell number in SIVs of Tg(fli1:nEGFP) zebrafish embryos; type: in vivo; details: calycosin 10, 30, 100 µM, 72 hpf for 24 h; SIV region
Method: Zebrafish embryos were generated by natural pair-wise mating (3–12 months old) and were raised at 28.5°C in embyro water. Healthy, hatched zebrafish were picked out at 3 dpf and distributed into a 12-well microplate with 10 to 15 fish in each well. Different concentrations (10, 30, 100 µM) of calycosin, raloxifene or tamoxifen solutions were then added to wells and incubated at 28°C for 24 h. Embryos receiving DMSO (0.1%) served as vehicle controls and were equivalent to no treatment. Each experiment was repeated at least three times, with 30 embryos per group. VTKI was dissolved in DMSO as stock. Zebrafish embryos, Tg(fli-1:EGFP) and Tg(fli-1:nEGFP), were treated with inhibitor dissolved in embryo water from 3 dpf at the concentration indicated, controlled by DMSO treated embryos. […]
as §2
Three random points in SIVs of Tg(fli1:EGFP) zebrafish embryos were chosen for vessel diameter measurement using AxiovisionLE 4.1. Numbers of endothelial cells in SIVs of Tg(fli1:nEGFP) zebrafish embryos were assessed by direct counting of the total number of green light points. […]

ERα [9] = target: T2, ERα; assay: GeneBLAzer β-lactamase reporter-gene assay, antagonist activity against E2, ERα-UAS-bla GripTite cells; details: in presence of EC80 of 17-β-estradiol
zebrafish embryos = assay: Toxicity (highest non-toxic dose) in zebrafish embryos; type: in vivo; details: 72 hpf for 24 h
Method: Zebrafish embryos were generated by natural pair-wise mating (3–12 months old) and were raised at 28.5°C in embyro water. Healthy, hatched zebrafish were picked out at 3 dpf and distributed into a 12-well microplate with 10 to 15 fish in each well. Different concentrations (10, 30, 100 µM) of calycosin, raloxifene or tamoxifen solutions were then added to wells and incubated at 28°C for 24 h. Embryos receiving DMSO (0.1%) served as vehicle controls and were equivalent to no treatment. Each experiment was repeated at least three times, with 30 embryos per group. VTKI was dissolved in DMSO as stock. Zebrafish embryos, Tg(fli-1:EGFP) and Tg(fli-1:nEGFP), were treated with inhibitor dissolved in embryo water from 3 dpf at the concentration indicated, controlled by DMSO treated embryos. Embryos were maintained using standard methods.
as §2

COc1ccc(-c2coc3cc(O)ccc3c2=O)cc1O [calycosin]
promotion of HUVEC proliferation (HUVEC; calycosin 100 µM, Fig. 9A experiment): 67%
VEGFA mRNA expression level compared to the control ([1]; embryos at 72 hpf, increase trend): 1.2 fold
Flk1A mRNA expression increase ([1]; P<0.001): 0.8 fold
Flk1B mRNA expression increase ([1]; P<0.001): 0.9 fold
VEGFR1 mRNA expression increase ([1]; P<0.001): 1.1 fold
reduction in IC50 value at ERβ compared with ERα (ERβ [2]): 2 fold
increase in maximal inhibition at ERβ compared with ERα (ERβ [2]; antagonist activity assay): 2 fold
maximum inhibition against E2 at ERβ (ERβ [2]; in presence of EC80 of 17-β-estradiol): 82%
IC50 (ERβ [3]): 32.4 µM
maximum agonistic activity at ERβ (ERβ [4]): 8.6%
EC50 (ERα [5]): 2.47 µM
increase in maximal activation at ERα compared with ERβ (ERα [5]; agonist activity assay): 2 fold
reduction in EC50 value at ERα compared with ERβ (ERα selectivity) (ERα [5]; agonist activity assay): 2 fold
maximum agonistic activity at ERα (ERα [5]; percentage of maximum activation induced by 17-β-estradiol (10 µM)): 14.6%
IC50 value relative to that of E2 (higher) (ERα [6]; binding to ERα and ERβ): approximately 10^4 fold
IC50 (ERα [6]; displacement of Fluormone ES2, 2 h room temperature): 58.1 µM
diameter of SIVs ([7]; calycosin 10, 30, 100 µM, 72 hpf to 96 hpf, vs 0.1% DMSO control, P<0.05 and P<0.001): increased in a dose-dependent manner
angiogenic effect in SIVs, comparison with classical SERMs ([7]; 72 hpf for 24 h): significant angiogenic effect
time at which phosphorylation of ERK1/2 reached a plateau (ERK1/2; calycosin 100 µM): 30 to 60 min
phosphorylation of ERK1/2, concentration dependence (ERK1/2; calycosin 10, 30, 100 µM for 30 min, maximum at 100 µM): enhanced in a dose-dependent manner
increase in endothelial cells population compared with the control [8]: approximately 1.5 times
maximum inhibition against E2 at ERα (ERα [9]): 46%

C[C@]12CC[C@@H]3c4ccc(O)cc4C[C@@H](CCCCCCCCC[S+]([O-])CCCC(F)(F)C(F)(F)F)[C@H]3[C@@H]1CC[C@@H]2O (stereo partly drawn) [ICI182, 780, reference compound]
reduction of calycosin-induced HUVEC proliferation (HUVEC; pre-treatment with ER inhibitor 30 µM before calycosin 100 µM): 40%
effect on calycosin-induced phosphorylation of ERK1/2 (ERK1/2; ICI182, 780 30 µM, calycosin 100 µM): suppressed phosphorylation of ERK1/2 to control levels

CC/C(=C(\c1ccccc1)c1ccc(OCCN(C)C)cc1)c1ccccc1 [tamoxifen]
angiogenic effect in SIVs, comparison with classical SERMs ([7]; 72 hpf for 24 h): no obvious changes
highest non-toxic dose in zebrafish embryos (zebrafish embryos): 3 µM

C[C@]12CC[C@@H]3c4ccc(O)cc4CC[C@H]3[C@@H]1CC[C@@H]2O [E2, 17-β-estradiol]
angiogenic effect in SIVs, comparison with classical SERMs ([7]; 72 hpf for 24 h): no obvious changes
highest non-toxic dose in zebrafish embryos (zebrafish embryos): 10 µM

O=C(Nc1ccc(Cl)cc1)c1ccccc1NCc1ccncc1 [VRI]
effect on calycosin-induced angiogenesis (SIV diameter and endothelial cell number) ([7]; VRI 100 ng/ml with calycosin 100 µM, 72 hpf for 24 h): sufficient to reverse the calycosin-induced angiogenic effects to control levels
effect on angiogenesis in zebrafish embryonic development, inhibitor alone, low concentration ([7]; VRI 100 ng/ml, 72 hpf for 24 h): no effect
effect on angiogenesis in zebrafish embryonic development, inhibitor alone, high concentration ([7]; VRI 1 µg/ml, 72 hpf for 24 h): caused significant (P<0.001) defects in angiogenesis

O=C(c1ccc(OCCN2CCCCC2)cc1)c1c(-c2ccc(O)cc2)sc2cc(O)ccc12 [raloxifene]
angiogenic effect in SIVs, comparison with classical SERMs ([7]; 72 hpf for 24 h): no obvious changes
highest non-toxic dose in zebrafish embryos (zebrafish embryos): 10 µM
